Three molecules from patent publication US20100074932A1, “ANTIMICROBIAL COMPOSITIONS CONTAINING GALLIUM” (priority 2006, published 2010) can be followed below.

The conditions of series [1]: on exposure of the coating to body fluid, based on relative solubilities in water. From the text: The differences in the solubility of the different salts in the composition will result in different and prolonged rates of release of the oligodynamic gallium in the coating composition when a device coated with the composition is exposed to body fluid. The amount of water in the final coating solution is about 30% of the total solvent weight.

For series [2], the system named is Escherichia coli 6418. The series can be described thus: Microbial colonization of hydrogel coated latex foley catheter surface, plate counting. It counts as cell-based. Particulars: 0.2 mM gallium nitrate, 48 hours, compared to positive control with no gallium, FIG. 3. Here is the method:
After 48 hours, catheter pieces were removed, microorganisms were recovered from the catheter surface and enumerated by plate counting methods.

In series [3] the test system is Escherichia coli 6418. The series can be described thus: Biofilm formation on catheter after two hours pre-attachment of bacteria, plate counting. The format is cell-based. Particulars: 0.2 mM gallium nitrate, 48 hours, compared to positive control with no gallium, FIG. 4.

For the molecule `[I][Ga]([I])[I]` [gallium iodide], in series [1], the “order of release from the coating composition” value was “lastly”.

Consider `CC(=O)[O-].CC(=O)[O-].CC(=O)[O-].[Ga+3]` [gallium acetate], for which the “order of release from the coating composition” value in series [1] was “Then”.

For the molecule `O=[N+]([O-])[O-].O=[N+]([O-])[O-].O=[N+]([O-])[O-].[Ga+3]` [gallium nitrate], the “microbial colonization of the catheter surface” value in series [2] was “reduced microbial colonization”. Further, the biofilm formation entry in series [3] is given as “reduced biofilm formation”.
